Measurements taken from patent US11377442B2, “Small molecule agonists and antagonists of NR2F6 activity” (ZANDER THERAPEUTICS, INC., priority 2016, dated 2022).
Read-outs that look alike come from different tables or passages of the source.

Assays:
Assay type in all cases: cell-based
NR2F6 = target: T1, NR2F6 (Homo sapiens, UniProt P10588); assay: NR2F6 agonist screening, Firefly signal cmpd/DMSO; details: first set screening, 10 μM
T1 construct: expressed in transfected cells; also transient transfection
T1 sequence (P10588 1-404): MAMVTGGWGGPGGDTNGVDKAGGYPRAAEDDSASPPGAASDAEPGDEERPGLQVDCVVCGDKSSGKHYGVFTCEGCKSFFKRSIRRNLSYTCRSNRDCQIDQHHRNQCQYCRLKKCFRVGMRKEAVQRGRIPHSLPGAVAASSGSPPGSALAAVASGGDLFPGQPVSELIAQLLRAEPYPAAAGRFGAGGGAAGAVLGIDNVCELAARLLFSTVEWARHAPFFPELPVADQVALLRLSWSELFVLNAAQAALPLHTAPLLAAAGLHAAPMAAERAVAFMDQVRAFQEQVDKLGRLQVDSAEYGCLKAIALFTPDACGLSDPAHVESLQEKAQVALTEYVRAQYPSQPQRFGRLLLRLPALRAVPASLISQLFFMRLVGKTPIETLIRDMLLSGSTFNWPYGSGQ

ERα = target: T2, ERα (Homo sapiens, UniProt P03372); assay: Counterscreening, Firefly signal with ERα transient transfection (Firefly_ERa); details: ERα transient transfection, 10 μM
T2 construct: expressed in transfected cells
T2 sequence (P03372 1-595): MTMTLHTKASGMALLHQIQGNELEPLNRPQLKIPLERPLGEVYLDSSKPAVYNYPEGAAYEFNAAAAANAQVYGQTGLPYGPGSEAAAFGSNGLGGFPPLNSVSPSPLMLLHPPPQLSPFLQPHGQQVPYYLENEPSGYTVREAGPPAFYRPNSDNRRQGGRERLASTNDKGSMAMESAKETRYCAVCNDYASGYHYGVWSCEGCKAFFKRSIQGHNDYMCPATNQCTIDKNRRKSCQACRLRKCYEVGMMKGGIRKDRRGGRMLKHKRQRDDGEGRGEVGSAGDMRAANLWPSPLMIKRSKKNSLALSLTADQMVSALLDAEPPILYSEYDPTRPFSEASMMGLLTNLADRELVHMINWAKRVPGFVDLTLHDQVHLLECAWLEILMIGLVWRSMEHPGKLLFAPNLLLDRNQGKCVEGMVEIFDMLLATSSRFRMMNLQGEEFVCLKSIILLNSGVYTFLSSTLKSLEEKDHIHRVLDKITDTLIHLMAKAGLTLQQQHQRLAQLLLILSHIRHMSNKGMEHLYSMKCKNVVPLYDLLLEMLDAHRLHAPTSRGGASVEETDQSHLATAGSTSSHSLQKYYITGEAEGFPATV
Method: The methodology for screening candidate compounds as NR2F6 agonists was as follows: For primary screening, hit criteria was ACT %>DMSO control+5*SD (DSO control) at 10 μM, or any compound with S/B>2. For rescreening, hit criteria was ACT %>DMSO control+3*SD (DSO control) in each replicate at 10 μM. For counterscreening, hit criteria was mean ACT<DMSO control+3*SD (DMSO control) with ERα transient transfection in duplicate at 10 μM.

Renilla = Renilla signal in NR2F6 agonist screening, cmpd/DMSO; details: first set screening, 10 μM; for fold induction at 10 µM: Renilla
Renilla_ERa = assay: Renilla signal in ERα counterscreen (Renilla_ERa); details: ERα transient transfection, 10 μM

Row | Firefly, cmpd/DMSO repeat 1 (NR2F6) | Firefly, cmpd/DMSO repeat 2 (NR2F6) | Firefly_ERa, cmpd/DMSO repeat 1 (ERα) | Firefly_ERa, cmpd/DMSO repeat 2 (ERα) | SMILES | fold induction at 10 µM (Renilla; repeat 1, read-out: Renilla, cmpd/DMSO repeat 1) | fold induction at 10 µM (Renilla; repeat 2, read-out: Renilla, cmpd/DMSO repeat 2) | fold induction at 10 µM (Renilla_ERa; repeat 1, read-out: Renilla_ERa, cmpd/DMSO repeat 1) | fold induction at 10 µM (Renilla_ERa; repeat 2, read-out: Renilla_ERa, cmpd/DMSO repeat 2) | Renilla, cmpd/DMSO repeat 1 (Renilla; repeat 1) | Renilla, cmpd/DMSO repeat 2 (Renilla; repeat 2) | Renilla_ERa, cmpd/DMSO repeat 1 (Renilla_ERa; repeat 1) | Renilla_ERa, cmpd/DMSO repeat 2 (Renilla_ERa; repeat 2)
1 | 3.8 | 3.8 | 2.5 | 1.9 | O=C(Nc1ccc(Cl)cn1)c1ccc(I)cc1 [Compound 18] | 3.3 | 4.2 | 0.8 | 0.9 | – | – | – | –
2 | 2.2 | 2.1 | 1.5 | 1.7 | Cc1ccnc(NC(=O)c2cc3sc4ccccc4c3s2)c1 [Compound 20] | – | – | – | – | 4.4 | 4.8 | 1.1 | 0.9
3 | 2.4 | 2.2 | 1.1 | 1.0 | CCn1c2c(c(=O)[nH]c1=O)C(c1ccc(C(C)C)cc1)C1=C(N2)c2ccccc2C1=O (stereo not drawn) [Compound 21] | – | – | – | – | 3.8 | 3.0 | 1.1 | 0.9
